According to PubChem BioAssay (NCI):
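Compound exposure: 48 hours, 5 concentrations, 96-well plates. Definition used: TGI = concentration required for complete inhibition of growth.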

Key:
Assay in all cases: NCI tumour cell line growth inhibition, 48 h
SK-MEL-5 melanoma = tested on: SK-MEL-5 melanoma
M14 melanoma = tested on: M14 melanoma
MALME-3M melanoma = tested on: MALME-3M melanoma
OVCAR-3 ovarian = tested on: OVCAR-3 ovarian
LOX IMVI melanoma = tested on: LOX IMVI melanoma
NCI-H23 lung = tested on: NCI-H23 lung
K-562 leukemia = tested on: K-562 leukemia
OVCAR-8 ovarian = tested on: OVCAR-8 ovarian
SF-295 CNS = tested on: SF-295 CNS
HCT-15 colon = tested on: HCT-15 colon
COLO 205 colon = tested on: COLO 205 colon
MDA-MB-231 breast = tested on: MDA-MB-231 breast
SW-620 colon = tested on: SW-620 colon
KM12 colon = tested on: KM12 colon
A549 NSCLC = tested on: A549 NSCLC
PC-3 prostate = tested on: PC-3 prostate
EKVX NSCLC = tested on: EKVX NSCLC
RXF 393 renal = tested on: RXF 393 renal
DU-145 prostate = tested on: DU-145 prostate
HCT-116 colon = tested on: HCT-116 colon
NCI-H522 lung = tested on: NCI-H522 lung
HL-60(TB) leukemia = tested on: HL-60(TB) leukemia
NCI-H460 lung = tested on: NCI-H460 lung
SF-539 CNS = tested on: SF-539 CNS
MDA-N = tested on: MDA-N
SNB-75 CNS = tested on: SNB-75 CNS
UACC-257 melanoma = tested on: UACC-257 melanoma
TK-10 renal = tested on: TK-10 renal
HCC-2998 colon = tested on: HCC-2998 colon
IGROV1 ovarian = tested on: IGROV1 ovarian
UO-31 renal = tested on: UO-31 renal
MOLT-4 leukemia = tested on: MOLT-4 leukemia
SF-268 CNS = tested on: SF-268 CNS
SN12C renal = tested on: SN12C renal
U251 CNS = tested on: U251 CNS
HOP-62 NSCLC = tested on: HOP-62 NSCLC
CCRF-CEM leukemia = tested on: CCRF-CEM leukemia
SNB-19 CNS = tested on: SNB-19 CNS
RPMI-8226 leukemia = tested on: RPMI-8226 leukemia
MDA-MB-435 = tested on: MDA-MB-435
HT29 colon = tested on: HT29 colon
HS 578T breast = tested on: HS 578T breast
SK-MEL-28 melanoma = tested on: SK-MEL-28 melanoma
CAKI-1 renal = tested on: CAKI-1 renal
OVCAR-5 ovarian = tested on: OVCAR-5 ovarian
NCI/ADR-RES ovarian = tested on: NCI/ADR-RES ovarian
UACC-62 melanoma = tested on: UACC-62 melanoma
786-0 renal = tested on: 786-0 renal
NCI-H226 lung = tested on: NCI-H226 lung
ACHN renal = tested on: ACHN renal
MCF7 breast = tested on: MCF7 breast
T-47D breast = tested on: T-47D breast
SK-OV-3 ovarian = tested on: SK-OV-3 ovarian
OVCAR-4 ovarian = tested on: OVCAR-4 ovarian
SK-MEL-2 melanoma = tested on: SK-MEL-2 melanoma

COc1cc2c(c(OC)c1OC)C(=O)[C@H](O)[C@H]2NC(N)=O
TGI (SK-MEL-5 melanoma): > 100 µM
TGI (M14 melanoma): > 100 µM
TGI (MALME-3M melanoma): > 100 µM
TGI (OVCAR-3 ovarian): > 100 µM
TGI (LOX IMVI melanoma): > 100 µM
TGI (NCI-H23 lung): > 100 µM
TGI (K-562 leukemia): > 100 µM
TGI (OVCAR-8 ovarian): > 100 µM
TGI (SF-295 CNS): > 100 µM
TGI (HCT-15 colon): > 100 µM
TGI (COLO 205 colon): > 100 µM
TGI (MDA-MB-231 breast): > 100 µM
TGI (SW-620 colon): > 100 µM
TGI (KM12 colon): > 100 µM
TGI (A549 NSCLC): > 100 µM
TGI (PC-3 prostate): > 100 µM
TGI (EKVX NSCLC): > 100 µM
TGI (RXF 393 renal): > 100 µM
TGI (DU-145 prostate): > 100 µM
TGI (HCT-116 colon): > 100 µM
TGI (NCI-H522 lung): > 100 µM
TGI (HL-60(TB) leukemia): > 100 µM
TGI (NCI-H460 lung): > 100 µM
TGI (SF-539 CNS): > 100 µM
TGI (MDA-N): > 100 µM
TGI (SNB-75 CNS): > 100 µM
TGI (UACC-257 melanoma): > 100 µM
TGI (TK-10 renal): > 100 µM
TGI (HCC-2998 colon): > 100 µM
TGI (IGROV1 ovarian): > 100 µM
TGI (UO-31 renal): > 100 µM
TGI (MOLT-4 leukemia): > 100 µM
TGI (SF-268 CNS): > 100 µM
TGI (SN12C renal): > 100 µM
TGI (U251 CNS): > 100 µM
TGI (HOP-62 NSCLC): > 100 µM
TGI (CCRF-CEM leukemia): > 100 µM
TGI (SNB-19 CNS): > 100 µM
TGI (RPMI-8226 leukemia): > 100 µM
TGI (MDA-MB-435): > 100 µM
TGI (HT29 colon): > 100 µM
TGI (HS 578T breast): > 100 µM
TGI (SK-MEL-28 melanoma): > 100 µM
TGI (CAKI-1 renal): > 100 µM
TGI (OVCAR-5 ovarian): > 100 µM
TGI (NCI/ADR-RES ovarian): > 100 µM
TGI (UACC-62 melanoma): 48.5 µM
TGI (786-0 renal): > 100 µM
TGI (NCI-H226 lung): > 100 µM
TGI (ACHN renal): > 100 µM
TGI (MCF7 breast): > 100 µM

N#CC(C#N)=Cc1ccc2c(c1)OC(Cl)O2 (stereo not drawn)
TGI (SK-MEL-5 melanoma): 35.1 µM
TGI (M14 melanoma): 55.7 µM
TGI (MALME-3M melanoma): 34.8 µM
TGI (OVCAR-3 ovarian): 52.8 µM
TGI (LOX IMVI melanoma): 38.2 µM
TGI (NCI-H23 lung): > 100 µM
TGI (K-562 leukemia): > 100 µM
TGI (OVCAR-8 ovarian): > 100 µM
TGI (SF-295 CNS): 37.4 µM
TGI (T-47D breast): > 100 µM
TGI (HCT-15 colon): 46.4 µM
TGI (COLO 205 colon): 52 µM
TGI (KM12 colon): 39.9 µM
TGI (A549 NSCLC): > 100 µM
TGI (PC-3 prostate): 47.8 µM
TGI (EKVX NSCLC): 79.5 µM
TGI (RXF 393 renal): 52.3 µM
TGI (SK-OV-3 ovarian): 61.5 µM
TGI (DU-145 prostate): 63 µM
TGI (HCT-116 colon): 38.6 µM
TGI (HL-60(TB) leukemia): 44.1 µM
TGI (SF-539 CNS): 38.6 µM
TGI (MDA-N): 35.2 µM
TGI (SNB-75 CNS): 75.4 µM
TGI (UACC-257 melanoma): 41 µM
TGI (TK-10 renal): 68.1 µM
TGI (UO-31 renal): 30.7 µM
TGI (MOLT-4 leukemia): > 100 µM
TGI (SF-268 CNS): 66.4 µM
TGI (SN12C renal): 51.2 µM
TGI (U251 CNS): 41.4 µM
TGI (CCRF-CEM leukemia): > 100 µM
TGI (SNB-19 CNS): 66.4 µM
TGI (RPMI-8226 leukemia): > 100 µM
TGI (MDA-MB-435): 35.7 µM
TGI (HT29 colon): 44.9 µM
TGI (SK-MEL-28 melanoma): 36.9 µM
TGI (CAKI-1 renal): > 100 µM
TGI (OVCAR-5 ovarian): 37.1 µM
TGI (NCI/ADR-RES ovarian): > 100 µM
TGI (UACC-62 melanoma): 59.3 µM
TGI (786-0 renal): 35.2 µM
TGI (OVCAR-4 ovarian): > 100 µM
TGI (SK-MEL-2 melanoma): 37.6 µM
TGI (NCI-H226 lung): 38.2 µM
TGI (ACHN renal): 36 µM
TGI (MCF7 breast): > 100 µM
